Assay results from patent US5571805A, “Antibiotic compounds” (Zeneca Limited, priority 1992, dated 1996).
In brackets after ≈: the same amount, converted by molar mass.

Columns and labels:
B. fragilis AMP S = test: MIC by agar-dilution (Diagnostic Sensitivity Test), inoculum 10^4 CFU/spot; assay type: cell-based; details: Bacteroides fragilis, read-out: minimum inhibitory concentration (MIC)
Text: (§1) The pharmaceutically acceptable carbapenem compounds of the present invention are useful antibacterial agents having a broad spectrum of activity in vitro against standard laboratory microorganisms, both Gram-negative and Gram-positive, which are used to screen for activity against pathogenic bacteria. The antibacterial spectrum and potency of a particular compound may be determined in a standard test system. In particular the carbapenems of the present invention show good stability to beta-lactamases and have a particularly good elimination half life in mammals. In general compounds show significant improvement over imipenem.
(§2) The following results were obtained for representative compounds on a standard in vitro test system using Diagnostic Sensitivity Test. The antibacterial activity is described in terms of the minimum inhibitory concentration (MIC) determined by the agar-dilution technique with an inoculum size of 10^4 CFU/spot.

E. coli DCO = test: as above; assay type: cell-based; details: Escherichia coli, read-out: minimum inhibitory concentration (MIC)
Text: as §1, §2

[1] = tested on: Enterobacter cloacae P99-; test: as above; assay type: cell-based; details: P99, read-out: minimum inhibitory concentration (MIC)
Text: as §1, §2

P. morganii I + 001 = test: as above; assay type: cell-based; details: Morganella morganii, read-out: minimum inhibitory concentration (MIC)
Text: as §1, §2

S. aureus Oxford = test: as above; assay type: cell-based; details: Staphylococcus aureus, read-out: minimum inhibitory concentration (MIC)
Text: as §1, §2

[2] = tested on: Gram positive and negative, aerobic and anaerobic bacteria; details: imipenem, background; cited from earlier work

| Structure (SMILES) | MIC (B. fragilis AMP S) | MIC (E. coli DCO) | MIC [1] | MIC (P. morganii I + 001) | MIC (S. aureus Oxford) | spectrum of antibacterial activity [2] |
| --- | --- | --- | --- | --- | --- | --- |
| C[C@@H](O)[C@H]1C(=O)N2C(C(=O)O)=C(S[C@@H]3CN[C@H](C(=O)Nc4cccc(S(=O)(=O)O)c4)C3)[C@H](C)[C@H]12 [EXAMPLE 1, (1R,5S,6S,8R,2'S,4'S)-2-(2-(3-Sulfophenylcarbamoyl)pyrrolidin-4-ylthio)-6-(1-hydroxyethyl)-1-methylcarbapenem-3-carboxylic acid] | 0.25 µg/mL (≈ 0.489 µM) | 0.015 µg/mL (≈ 0.0293 µM) | 0.008 µg/mL (≈ 0.0156 µM) | 0.015 µg/mL (≈ 0.0293 µM) | 0.125 µg/mL (≈ 0.244 µM) | – |
| C[C@@H](O)[C@H]1C(=O)N2C(C(=O)O)=C(SCCN=CN)C[C@H]12 [imipenem, N-formimidoyl thienamycin] | – | – | – | – | – | broad spectrum of antibacterial activity |
